Assay results as given in patent US10131663B2, “Chemical compounds” (AstraZeneca AB, priority 2016, dated 2018).
pIC50: −log10 of the molar value.

How the values were obtained:
[1] = target: T1, Estrogen Receptor (ERα) in MCF-7 cells (Homo sapiens (Human), UniProt P03372); test: MCF-7 ER down-regulation assay (immuno-fluorescence); assay type: cell-based
Outline: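 Compounds dispensed acoustically from DMSO stocks onto MCF-7 cells; cells fixed 20 min at room temperature, then automated immunostaining for ERα with overnight incubation at 4° C. Read-out is mean total ER fluorescence intensity normalized to cell number (intensity per cell), with curve fitting for concentration-response values.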

[2] = target: estrogen receptor (ERα) in CAMA-1 cells (Homo sapiens (Human), UniProt P03372); test: Western blotting assay, ER down-regulation in CAMA-1; assay type: cell-based; settings: 100 nM compound, 48 h, normalised to 100 nM fulvestrant
Procedure: (§1) Cells were incubated with compounds (100 nM) or vehicle control (0.1% DMSO) for 48 h at 37° C., 5% CO2 before washing once with PBS and lysing with 80 μl lysis buffer (25 mM Tris/HCl, 3 mM EDTA, 3 mM EGTA, 50 mM NaF, 2 mM sodium orthovanadate, 0.27 M sucrose, 10 mM β-glycerophosphate, 5 mM sodium pyrophosphate, 0.5% TritonX-100, pH 6.8) on ice.
(§2) Samples were boiled for 10 min at 95° C. and then frozen at −20° C. until ready for use.
(§3) The blot was stained with Ponceau S (P7170, Sigma) and cut according to appropriate molecular weight markers.
(§4) Membranes were blocked for 1 hour at room temp in 5% Marvel (w/v) in phosphate-buffered saline containing 0.05% Tween™ 20 (PBS/Tween). Blots were then incubated with anti-ERα (SP1) rabbit monoclonal antibody (Thermofisher) diluted 1:1000 at 4° C. overnight (with gentle shaking) followed by several washes with PBS/Tween. […] All antibodies were made up in 5% Marvel (w/v) in PBS/Tween.
(§5) Down-regulation of the ERα receptor was normalised to the vehicle control (0% down-regulation) and the 100 nM fulvestrant control (100% down-regulation) run within the same gel.

[3] = target: T1, Estrogen Receptor (ERα) in MCF-7 cells; test: Western blotting assay, ER down-regulation in MCF-7; assay type: cell-based; settings: 100 nM compound, 48 h, normalised to 100 nM fulvestrant
Procedure: as §1, §2, §3, §4, §5

[4] = log D (shake flask, 1-octanol/aqueous buffer); assay type: physicochemical
Outline: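 Distribution between 1-octanol and aqueous buffer at pH 7.4 was measured by shake flask, with compounds run in mixtures of ten. Relative concentrations in each phase were quantified by UPLC with quantitative MS. Caffeine served as a low-log D QC sample in all runs.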

[5] = Human plasma protein binding (equilibrium dialysis); assay type: in vitro ADME; settings: dialysis 18 hours
Outline: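 Fraction unbound (fu %) in human plasma, from LC/MSMS of plasma and buffer sides (7-point plasma calibration) after 18 h rapid equilibrium dialysis. Single determinations, with compounds pooled up to 10 per plasma pool.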

[6] = target: hERG potassium channel (Homo sapiens (Human), UniProt Q12809); test: hERG binding assay (automated patch clamp, CHO cells); assay type: cell-based; settings: CHO cell line, Nanion Syncropatch 384PE
Outline: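 CHO cells on automated patch clamp; compounds tested in quadruplicate. Currents evoked every 15 s from −80 mV holding by a 500 ms step to 60 mV then 500 ms to −40 mV.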

[7] = Human Caco-2 bidirectional permeability A to B and B to A; assay type: in vitro ADME; settings: for Papp at 2 h: Caco-2, 2 hours, pH 7.4; for efflux ratio at 2 h: Caco-2, pH 7.4
[8] = pH 7.4, 1-octanol/aqueous buffer
[9] = 1-octanol/aqueous buffer, pH 7.4, pH 7.4, 1-octanol/aqueous buffer

Chain of hERG potassium channel (Q12809 whole entry): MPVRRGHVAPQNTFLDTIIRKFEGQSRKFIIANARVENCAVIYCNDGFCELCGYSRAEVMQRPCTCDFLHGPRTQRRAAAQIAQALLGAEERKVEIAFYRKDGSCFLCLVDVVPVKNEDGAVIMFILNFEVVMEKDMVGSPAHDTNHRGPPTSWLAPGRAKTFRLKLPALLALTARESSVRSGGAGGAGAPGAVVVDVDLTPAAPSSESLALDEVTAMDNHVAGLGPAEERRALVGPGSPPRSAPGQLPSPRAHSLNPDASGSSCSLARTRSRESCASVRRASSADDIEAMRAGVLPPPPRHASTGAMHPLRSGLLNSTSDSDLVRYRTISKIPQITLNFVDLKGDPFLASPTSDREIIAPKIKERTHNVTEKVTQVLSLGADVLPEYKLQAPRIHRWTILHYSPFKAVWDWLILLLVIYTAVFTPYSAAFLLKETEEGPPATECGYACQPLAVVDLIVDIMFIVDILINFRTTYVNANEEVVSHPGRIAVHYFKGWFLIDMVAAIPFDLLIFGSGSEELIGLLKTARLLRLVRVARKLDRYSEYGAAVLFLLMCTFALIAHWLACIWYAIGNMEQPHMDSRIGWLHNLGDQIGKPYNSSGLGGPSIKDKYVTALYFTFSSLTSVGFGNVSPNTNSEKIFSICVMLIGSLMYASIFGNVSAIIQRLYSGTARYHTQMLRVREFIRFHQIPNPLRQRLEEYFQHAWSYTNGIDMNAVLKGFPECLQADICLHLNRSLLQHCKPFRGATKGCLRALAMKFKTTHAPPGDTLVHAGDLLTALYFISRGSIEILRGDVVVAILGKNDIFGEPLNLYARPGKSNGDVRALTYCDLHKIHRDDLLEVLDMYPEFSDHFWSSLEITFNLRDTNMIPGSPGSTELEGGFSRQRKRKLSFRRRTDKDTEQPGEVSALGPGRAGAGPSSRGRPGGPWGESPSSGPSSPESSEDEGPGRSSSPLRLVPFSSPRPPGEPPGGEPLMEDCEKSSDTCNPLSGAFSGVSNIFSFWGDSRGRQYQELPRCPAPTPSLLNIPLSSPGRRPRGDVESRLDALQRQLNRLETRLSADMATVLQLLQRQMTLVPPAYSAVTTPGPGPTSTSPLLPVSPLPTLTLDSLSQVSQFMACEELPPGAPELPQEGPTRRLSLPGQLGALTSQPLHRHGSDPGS
Chain of estrogen receptor (ERα) in CAMA-1 cells (P03372 whole entry): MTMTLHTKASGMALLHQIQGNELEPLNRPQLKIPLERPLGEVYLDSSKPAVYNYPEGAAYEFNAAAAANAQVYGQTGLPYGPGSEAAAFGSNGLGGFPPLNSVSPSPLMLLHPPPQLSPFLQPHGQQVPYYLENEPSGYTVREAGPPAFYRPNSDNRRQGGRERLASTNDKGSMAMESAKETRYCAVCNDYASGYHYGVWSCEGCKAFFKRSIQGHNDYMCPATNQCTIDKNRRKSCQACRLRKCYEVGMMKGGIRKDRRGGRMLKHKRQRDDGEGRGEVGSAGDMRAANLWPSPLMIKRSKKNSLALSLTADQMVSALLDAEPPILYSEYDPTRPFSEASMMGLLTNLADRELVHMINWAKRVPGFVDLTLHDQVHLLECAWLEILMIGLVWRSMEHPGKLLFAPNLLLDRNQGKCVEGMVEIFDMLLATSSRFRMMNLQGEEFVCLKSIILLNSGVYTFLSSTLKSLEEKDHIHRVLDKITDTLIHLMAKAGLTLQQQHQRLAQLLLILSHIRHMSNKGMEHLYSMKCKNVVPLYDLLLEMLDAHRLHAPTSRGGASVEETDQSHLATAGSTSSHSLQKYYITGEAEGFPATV
T1 sequence (P03372 whole entry): as above

Row | SMILES | pIC50 [1] | CAMA1 Western % ER deg vs Fv [2] | MCF7 Western % ER deg vs Fv [3] | logD [4, 8] | Human plasma protein binding (% free) [5] | pIC50 [6] | Papp at 2 h [7] | efflux ratio at 2 h [7] | logD [4, 9]
1 | COc1cc(NC2CN(CCCF)C2)ccc1[C@@H]1c2ccc3[nH]ncc3c2C[C@@H](C)N1CC(F)(F)F [Example 28, 1-(3-fluoropropyl)-N-(3-methoxy-4-((6S,8R)-8-methyl-7-(2,2,2-trifluoroethyl)-6,7,8,9-tetrahydro-3H-pyrazolo[4,3-f]isoquinolin-6-yl)phenyl)azetidin-3-amine] | 10.19 | 110% | 95% | 3.6 | 6 % free | 5.11 | 1.2 ×10⁻⁶ cm/s | 3.8 | 
2 | COc1cc(NC2CN(CCCF)C2)ccc1[C@@H]1c2ccc3[nH]ncc3c2C[C@@H](C)N1CC(C)(F)F [Example 19, N-(4-((6S,8R)-7-(2,2-difluoropropyl)-8-methyl-6,7,8,9-tetrahydro-3H-pyrazolo[4,3-f]isoquinolin-6-yl)-3-methoxyphenyl)-1-(3-fluoropropyl)azetidin-3-amine] | 10.20 | 94% | 92% | 3.7 | 4.3 % free | 5.27 | 4.2 ×10⁻⁶ cm/s | 2.6 | 
3 | COc1cc(NC2CN(CCCF)C2)ccc1[C@@H]1c2ccc3[nH]ncc3c2C[C@@H](C)N1CC(C)(C)F [Example 64, N-(4-((6S,8R)-7-(2-fluoro-2-methylpropyl)-8-methyl-6,7,8,9-tetrahydro-3H-pyrazolo[4,3-f]isoquinolin-6-yl)-3-methoxyphenyl)-1-(3-fluoropropyl)azetidin-3-amine] | 9.66 | 89% | 86% | 3.2 | 14 % free | 4.89 | 2 ×10⁻⁶ cm/s | 5.6 | 
4 | C[C@@H]1Cc2c(ccc3[nH]ncc23)[C@@H](c2ccc(NC3CN(CCCF)C3)cn2)N1CC(F)F [Example 25, 6-((6S,8R)-7-(2,2-difluoroethyl)-8-methyl-6,7,8,9-tetrahydro-3H-pyrazolo[4,3-f]isoquinolin-6-yl)-N-(1-(3-fluoropropyl)azetidin-3-yl)pyridin-3-amine] | 9.48 | 96% | 98% |  | 40 % free | 4.55 | 5 ×10⁻⁶ cm/s | 7.4 | 2.5
5 | C[C@@H]1Cc2c(ccc3[nH]ncc23)[C@@H](c2ncc(NC3CN(CCCF)C3)cc2F)N1CC1(F)CC1 [Example 18, 5-fluoro-6-((6S,8R)-7-((1-fluorocyclopropyl)methyl)-8-methyl-6,7,8,9-tetrahydro-3H-pyrazolo[4,3-f]isoquinolin-6-yl)-N-(1-(3-fluoropropyl)azetidin-3-yl)pyridin-3-amine] | 9.38 | 95% | 103% |  | 34 % free | < 4.42 |  |  | 2.6
6 | C[C@@H]1Cc2c(ccc3[nH]ncc23)[C@@H](c2ccc(NC3CN(CCCF)C3)cn2)N1CC1(F)CC1 [Example 3, 6-((6S,8R)-7-((1-fluorocyclopropyl)methyl)-8-methyl-6,7,8,9-tetrahydro-3H-pyrazolo[4,3-f]isoquinolin-6-yl)-N-(1-(3-fluoropropyl)azetidin-3-yl)pyridin-3-amine] | 9.19 | 102% | 90% | 2.5 | 26 % free | < 4.44 | 2.3 ×10⁻⁶ cm/s | 9.2 | 
7 | C[C@@H]1Cc2c(ccc3[nH]nc(F)c23)[C@@H](c2ncc(NC3CN(CCCF)C3)cc2F)N1CC(F)(F)F [Example 33, 5-Fluoro-6-((6S,8R)-1-fluoro-8-methyl-7-(2,2,2-trifluoroethyl)-6,7,8,9-tetrahydro-3H-pyrazolo[4,3-f]isoquinolin-6-yl)-N-(1-(3-fluoropropyl)azetidin-3-yl)pyridin-3-amine] | 10.00 | 102% | 98% | 3.6 | 5.4 % free | 4.85 | 2.6 ×10⁻⁶ cm/s | 1.5 | 
8 | COc1cc(NC2CN(CCCF)C2)ccc1[C@@H]1c2ccc3[nH]ncc3c2C[C@@H](C)N1CC1(F)CC1 [Example 6, N-(4-((6S,8R)-7-((1-fluorocyclopropyl)methyl)-8-methyl-6,7,8,9-tetrahydro-3H-pyrazolo[4,3-f]isoquinolin-6-yl)-3-methoxyphenyl)-1-(3-fluoropropyl)azetidin-3-amine] | 9.46 | 84% | 89% | 2.4 | 34 % free | 5.04 | 0.9 ×10⁻⁶ cm/s | 28 | 
9 | COCC(F)(F)CN1[C@H](c2ccc(NC3CN(CCCF)C3)cn2)c2ccc3[nH]ncc3c2C[C@H]1C [Example 2, 6-((6S,8R)-7-(2,2-difluoro-3-methoxypropyl)-8-methyl-6,7,8,9-tetrahydro-3H-pyrazolo[4,3-f]isoquinolin-6-yl)-N-(1-(3-fluoropropyl)azetidin-3-yl)pyridin-3-amine] | 8.51 | 95% | 93% |  | 28 % free | < 4.40 | 3.9 ×10⁻⁶ cm/s | 8.4 | 2.6
10 | COc1cc(NC2CN(CCCF)C2)ccc1[C@@H]1c2ccc3[nH]ncc3c2C[C@@H](C)N1CC(F)F [Example 21, N-(4-((6S,8R)-7-(2,2-difluoroethyl)-8-methyl-6,7,8,9-tetrahydro-3H-pyrazolo[4,3-f]isoquinolin-6-yl)-3-methoxyphenyl)-1-(3-fluoropropyl)azetidin-3-amine] | 10.01 | 101% | 99% |  | 12 % free | 5.28 | 4 ×10⁻⁶ cm/s | 1.6 | 3.1
11 | C[C@@H]1Cc2c(ccc3[nH]ncc23)[C@@H](c2ccc(NC3CN(CCCF)C3)cn2)N1CC(F)(F)F [Example 17, N-(1-(3-fluoropropyl)azetidin-3-yl)-6-((6S,8R)-8-methyl-7-(2,2,2-trifluoroethyl)-6,7,8,9-tetrahydro-3H-pyrazolo[4,3-f]isoquinolin-6-yl)pyridin-3-amine] |  | 96% | 92% |  | 23 % free |  | 4.7 ×10⁻⁶ cm/s |  | 2.9
12 | C[C@@H]1Cc2c(ccc3[nH]ncc23)[C@@H](c2ccc(NC3CN(CCCF)C3)cc2)N1CC(F)F [Example 48, N-(4-((6R,8R)-7-(2,2-difluoroethyl)-8-methyl-6,7,8,9-tetrahydro-3H-pyrazolo[4,3-f]isoquinolin-6-yl)phenyl)-1-(3-fluoropropyl)azetidin-3-amine] | 10.11 | 94% | 93% |  | 10 % free |  |  |  | 3.1
